Reference: patent US20110230504A1, “ALLEVIATING DISORDERS WITH COMBINING AGENTS THAT INCREASE EPOXYGENATED FATTY ACIDS AND AGENTS THAT INCREASE cAMP” (The Regents Of The University Of California Office Of …, priority 2008, published 2011)
Entries after “also recorded” stand apart in the source; their conditions may differ.

What was measured:
[1] = test system: StARD1 mRNA; assay: StARD1 mRNA 30 min after intraspinal 8-Br cAMP, EETs, AEPU in non-inflamed rats; assay type: in vivo, rat; settings: 8-Br cAMP 100 μg, EETs 5 μg, AEPU 1 μg
Experimental: To investigate the cooperation between cAMP and EETs in the spinal cord, a membrane permeable cAMP analogue, 8-Br cAMP (100 μg), was administered into the spinal cord by lumbar puncture (between L4-L5) and rapid (30 min.) expression of StARD1 mRNA in the spinal cord and the brain was quantified by qRT-PCR. In these experiments animals were maintained under deep anesthesia.

[2] = test system: rats; assay: Streptozocin induced diabetic neuropathy, Von Frey mechanical allodynia; assay type: in vivo, rat; settings: Von Frey's test
Experimental: The study was approved by UC Davis Animal Care and Use Committee. Male Sprague-Dawley rats weighing 250-350 g were obtained from Charles River Inc. Two models of inflammatory pain and one model of diabetic neuropathic pain were used to test the effects of sEHI. The main inflammatory pain model used involved intraplantar LPS (10 μg/animal) administration as described previously (Inceoglu B et al., Life Sci 79:2311-2319 (2006)). Briefly, following baseline thermal withdrawal latency and mechanical withdrawal threshold determination LPS (in saline) was administered into one hind paw and nociceptive thresholds were monitored over time. The other inflammatory pain model involved intraplantar carrageenan (1% in saline, 50 μl) administration and was only used when sEHI was administered into the spinal cord. Intrathecal catheters were implanted according to Yaksh and Rudy (Yaksh T L and Rudy T A, Physiol Behav 17(6):1031-1036 (1976)). Following baseline nociceptive response measurements carrageenan was administered into one hind paw and responses were monitored over time and after intraspinal sEHI administration. […] In experiments in which EETs, sEHI and cAMP analogue was administered intraspinally animals were maintained under deep anesthesia and therefore nociceptive thresholds were not determined.

[3] = test system: rats; assay: Thermal hindpaw withdrawal latency (Hargreaves), non-inflammatory model; assay type: in vivo, rat
Experimental: (§1) Behavioral nociceptive testing was conducted by assessing thermal hindpaw withdrawal latencies (TWL) using a commercial Hargreaves apparatus (IITC, Woodland Hills, Calif.), or by determining mechanical hind paw withdrawal thresholds (MWT) using a digital paw pressure Randall-Selitto instrument (IITC, Woodland Hills, Calif.). On the day of the experiment, rats were transferred to a quiet room, acclimated for 1 hour and their baseline responses were measured. In pilot experiments, the intensity of the thermal stimulus was set to produce a baseline TWL of 7-8 sec. Baseline mechanical hind paw withdrawal thresholds varied between 60-70 grams of force. Immediately following baseline determination all compounds were administered subcutaneously in the following vehicles; Inhibitors of sEH were formulated in trans free oleate and administered in a total volume of 300 µL Rolipram, picrotoxin, flucanozole, miconazole and finasteride were all dissolved in a sterile saline solution containing 25% DMSO and administered in a volume of 50 μl. Caffeine was dissolved in saline and administered in a total volume of 300 μl. All agents were administered subcutaneously into the back. In groups treated with the sEHi, cytochrome P450 inhibitors, finasteride or picrotoxin animals were pretreated one hour before other compounds. In groups treated with the PDEi, immediately following PDEi administration animals were placed in acrylic chambers on a glass platform maintained at a temperature of 30±1° C. for TWL measurement. Three to five TWL measurements were taken at 1-2 min interstimulus intervals following treatments and these were averaged for each animal at each time point. For MWT measurement, 45 minutes following treatment, the probe of the Randall-Selitto paw pressure meter was applied to the dorsal surface of the hind paw. The instrument was set to the maximum holding (MH) mode and the readout that elicited a hind paw withdrawal was designated as the threshold. Three MWT measurements were taken at 1-2 min interstimulus intervals and these were averaged for each animal. Data are presented as percent change from each animal's baseline response. Open field activity was quantified using a Plexiglas chamber (40×40×30 cm, length×width×height) imprinted with a 10×10 cm grid. Animals were placed in the middle of the chamber and observed for two minutes. The number of crossings were recorded when both hind paws crossed into a neighboring cell.
A non-inflammatory model was used to test the hypothesis that elevated intracellular cAMP and EETs will act synergistically in producing antinociception. Intracellular cAMP levels were increased by administering increasing doses of two CNS permeable PDEi; rolipram, a PDE-4 selective inhibitor and caffeine, a non selective PDEi. […]

[4] = test system: rats; assay: Mechanical hind paw withdrawal threshold (Randall-Selitto), non-inflammatory model; assay type: in vivo, rat
Experimental: as §1, with “For MWT measurement, 45 minutes following treatment, the probe of the Randall-Selitto paw pressure meter was applied to the dorsal surface of the hind paw.” left out, “Three MWT measurements were taken at 1-2 min interstimulus intervals and these were averaged for each animal. Data are presented as percent change from each animal's baseline response.” left out, “Animals were placed in the middle of the chamber and observed for two minutes.” left out, “cell. […]” for “cell.”

[5] = Brain, blood and plasma inhibitor levels, LC-ESI-MS/MS; settings: 10 mg/kg TPAU, 40 mg/kg AUDA; unpublished results
[6] = test system: C57BL/6 mice; sEH null mice; assay: Picrotoxin induced seizures; assay type: in vivo, mouse
[7] = test system: StARD1 mRNA; assay: StARD1 expression after rolipram and TPAU, qRT-PCR; assay type: in vivo, rat; settings: rats
Text: Briefly, RNA from whole spinal cord, brain and adrenal gland samples were extracted using a purelink Micro to Midi total RNA purification kit (Invitrogen, CA). The RNA samples were quantified by spectrophotometry and converted to cDNA using a high capacity cDNA reverse transcription kit from Applied Biosystems (CA, USA). Taq-man probe for StARD1 (Rn00580695_ml) was used according to manufacturer's instructions to quantify relative gene expression (Applied Biosystems CA, USA). Experiments were performed in triplicate with glyceraldehyde 3-phosphate dehydrogenase gene serving as the endogenous control. Mean fold expression values from corresponding vehicle treated animal tissues were used as calibrators.
These findings encouraged us to investigate the expression of StARD1 message as a marker of steroidogenic activity. […] Adrenal StARD1 from the same animals was also monitored as a marker of peripheral steroidogenesis.

[8] = test system: rats; assay: Open field / motor activity; assay type: in vivo, rat; settings: rolipram 0.1 and TPAU 10 mg/kg
[9] = test system: C57BL/6 mice; assay: Pentobarbital induced loss of righting reflex; assay type: in vivo, mouse; settings: pentobarbital 40 mg/kg i.p., TPAU 3 mg/kg, rolipram 1 mg/kg s.c.
Text: Loss of righting was quantified as previously described, with a slightly lower dose of pentobarbital (Pinna, et al. (2004) Proc Natl Acad Sci USA, 101(16), 6222-6225).
In rats, sEHi-PDEi combination led to significant increases in nociceptive thresholds. We asked if co-administration of sEHi-PDEi combination would also enhance GABA-related activity in mice. Loss of righting reflex in pentobarbital administered mice following sEHi and PDEi administration was quantified.

[10] = test system: allopregnanolone; assay: Radioimmunoassay of allopregnanolone in spinal cord and brain; assay type: in vivo, rat; settings: rats, increasing rolipram doses, TPAU 10 mg/kg s.c.
Experimental: Radioimmunoassays were conducted as previously described (Janis G, C. et al., Alcoholism: Clinical and Experimental Research 22:2055-2061 (1998)). Briefly, spinal cord and brain samples were weighed and suspended in 2.5 ml of 0.3N NaOH, homogenized with a sonic dismembrator, and extracted three times with 3 ml aliquots of 10% ethyl acetate in heptane (vol/vol). Extraction recovery was monitored by the addition of 2000 cpm of [^3H]allopregnanolone. The extracts were purified using solid phase silica columns (Burdick and Jackson, Muskegon, Mich.) and subsequently dried. Samples were reconstituted and assayed in duplicate by the addition of [^3H]allopregnanolone and anti-allopregnanolone antibody (1:2000; Custom synthesis, Reproductive Endocrine Unit, Massachusetts General Hospital). Total binding was determined in the absence of unlabeled allopregnanolone and nonspecific binding was determined in the absence of antibody. The antibody binding reaction is allowed to equilibrate for 2 hours and cold dextran-coated charcoal was used to separate bound from unbound steroid. Bound radioactivity was determined by liquid scintillation spectroscopy. Steroid levels in the samples were extrapolated from a concurrently run standard curve and corrected for their respective extraction efficiencies. The sensitivity of the assay was 0.63 ng/ml. The intraassay coefficient of variation was <5%.

[11] = test system: plasma oxylipins (EETs, DHETs, PGE2); assay: Plasma oxylipin analysis in LPS treated rats; assay type: in vivo, rat
Text: Plasma was collected by cardiac puncture under deep anesthesia. Rats were anesthetized by isoflurane overdose and decapitated. Whole brains were immediately excised and flash frozen. […] Dorsal roots were excluded.

[12] = test system: rats; assay: Thermal withdrawal latency, intraplantar LPS inflammatory pain model and non-inflamed controls; assay type: in vivo, rat; settings: for effect on AEPU mediated antihyperalgesia: LPS treated rats, AEPU 50 mg/kg topical; for thermal withdrawal latency in the absence of inflammation: control rats, i.pl. saline; for LPS elicited thermal hyperalgesia (thermal withdrawal latency): rats, i.pl. LPS 10 μg
[13] = test system: circulating testosterone and progesterone; assay: Circulating steroid hormone levels by RIA; assay type: in vivo, rat; settings: rats
[14] = one hour, increasing rolipram doses, TPAU 10 mg/kg

Nc1ncnc2c1nc(Br)n2[C@@H]1O[C@@H]2COP(=O)(O)O[C@H]2[C@H]1O [8-Br cAMP]
brain StARD1 expression [1]: Neither brain nor spinal StARD1 expression changed | spinal StARD1 expression [1]: without effect

O=C(O)CCCCCCCCCCCNC(=O)NC12CC3CC(CC(C3)C1)C2 [AUDA, 12-(3-Adamantan-1-yl-ureido)dodecanoic acid]
mechanical allodynia elicited by streptozocin induced diabetic neuropathy [2]: reduced | thermal withdrawal latency, sEHi alone ([3]; rats, s.c., over 4 hours, vs baseline): no significant differences | effect on caffeine's increase of mechanical withdrawal threshold ([4]; rats, AUDA 40 mg/kg): enhanced | plasma inhibitor levels relative to rat sEH IC50 [5]: 200 fold

OC(Cn1cncn1)(Cn1cncn1)c1ccc(F)cc1F [Flucanozole]
effect on the dose-effect curve of rolipram (antinociception) ([3]; rats, s.c.): antagonized

COc1ccc(C2CNC(=O)C2)cc1OC1CCCC1 (centres unmarked) [Rolipram]
time to onset of picrotoxin induced seizures ([6]; C57BL/6 mice, picrotoxin 10 mg/kg s.c., TPAU 3 mg/kg, rolipram 1 mg/kg s.c.): no effect | onset of picrotoxin induced seizures in sEH null mice ([6]; sEH null mice, increasing doses): delayed in a dose dependent manner | decrease in adrenal gland StARD1 expression [7]: 30% | brain StARD1 expression [7, 14]: no change | spinal cord StARD1 expression [7, 14]: biphasic increase | ED50 ([3]; Rattus norvegicus, sc): 0.53 mg/kg | efficacy, increase over baseline in thermal withdrawal latency ([3]; rats, s.c.): 202% | ED50 ([4]; Rattus norvegicus, sc, rats, rolipram dose, AUDA 40 mg/kg): 0.3 mg/kg | open field activity / motor function [8]: depression of activity | duration of pentobarbital induced loss of righting response [9]: no effect; also recorded: did not change | brain allopregnanolone levels [10]: significantly increased allopregnanolone levels at one dose point only | spinal cord allopregnanolone levels [10]: did not change

CCC1(c2ccc(N)cc2)CCC(=O)NC1=O (centres unmarked) [aminoglutethimide]
plasma EET/DHET ratio ([11]; LPS and AEPU-treated rats): did not change | antagonism of sEHI reduction of PGE2 ([11]; LPS+AEPU+AGL treated rats): did not antagonize | effect on AEPU mediated antihyperalgesia [12]: blocked | thermal withdrawal latency in the absence of inflammation [12]: failed to alter | LPS elicited thermal hyperalgesia (thermal withdrawal latency) [12]: failed to alter | circulating / plasma progesterone level [13]: significantly reduced

Cn1c(=O)c2c(ncn2C)n(C)c1=O [caffeine]
open field activity / motor function [8]: did not cause depression of motor activity

CC(C)(C)NC(=O)[C@H]1CC[C@H]2[C@@H]3CC[C@H]4NC(=O)C=C[C@]4(C)[C@H]3CC[C@]12C [finasteride]
effect on the dose-effect curve of rolipram (antinociception) ([3]; rats, s.c.): antagonized | effect on AEPU mediated antihyperalgesia [12]: blocked | thermal withdrawal latency in the absence of inflammation [12]: failed to alter | LPS elicited thermal hyperalgesia (thermal withdrawal latency) [12]: failed to alter

Clc1ccc(COC(Cn2ccnc2)c2ccc(Cl)cc2Cl)c(Cl)c1 (centres unmarked) [miconazole]
effect on the dose-effect curve of rolipram (antinociception) ([3]; rats, s.c.): failed to change

CC#C[C@]1(O)CC[C@H]2[C@@H]3CCC4=CC(=O)CCC4=C3[C@@H](c3ccc(N(C)C)cc3)C[C@@]21C [mifepristone]
effect on AEPU mediated antihyperalgesia [12]: did not block

CC1(C)NC(=O)N(c2ccc([N+](=O)[O-])c(C(F)(F)F)c2)C1=O [nilutamide]
effect on AEPU mediated antihyperalgesia [12]: did not block

CC(=O)S[C@@H]1CC2=CC(=O)CC[C@]2(C)[C@H]2CC[C@@]3(C)[C@@H](CC[C@@]34CCC(=O)O4)[C@H]12 [spironolactone]
effect on AEPU mediated antihyperalgesia [12]: did not block

CC/C(=C(\c1ccccc1)c1ccc(OCCN(C)C)cc1)c1ccccc1 [tamoxifen]
effect on AEPU mediated antihyperalgesia [12]: did not block

picrotoxin
effect on rolipram+AUDA antinociception, thermal withdrawal ([3]; picrotoxin 0.25 mg/kg): antagonized | baseline nociceptive responses, given alone ([3]; picrotoxin 0.25 mg/kg s.c.): did not change baseline responses | effect on rolipram+AUDA increase in mechanical withdrawal threshold ([4]; picrotoxin 0.25 mg/kg): antagonized
